Experiments:
lactoferrin, ER, and PR = experiment: Western blot of lactoferrin, ER and PR protein levels in uterus tissue; type: in vivo, mice; settings: 1.0 μg per day per animal
Method: (§1) Aged (about 16-20 weeks old) virgin aromatase transgenic females were used to investigate the effect of the aromatase inhibitor, COMPOUND I, as a chemopreventive agent against the preneoplastic and neoplastic changes induced in mammary glands of these mice. In this study, age-matched transgenic females were divided into four groups, one group (n=10) served as control group, the other groups received daily s.c. injection of COMPOUND I and three different doses; 0.25, 05, 1.0 μg COMPOUND I per animal in 100 μl of 0.3% hydroxy propyl cellulose (in phospate buffered saline). Control animals were given s.c. injection of vehicle. COMPOUND I was a gift from Drs. Ajay Bhatnagar and Dean Evans of Novartis Pharma (Basel, Switzerland). At the end of the 6-week treatment, mammary glands were removed and one gland each was used for histological analysis. All other glands were pooled then used for biochemical analysis as described below. Along with the mammary glands, uterus and ovaries was collected for biochemical and histological analyses.
(§2) To isolate proteins from mammary gland and uterine tissue of both control and COMPOUND I-treated aromatase animals, the tissues were homogenized in lysis buffer. Equal amounts (60 ug) of protein from each sample was separated on a denaturing polyacrylamide gel and transferred to a nylon membrane. […]

[1] = system: aromatase transgenic mice; settings: 5 μg/mouse/daily, previous studies; cited from earlier work
[2] = system: aromatase transgenic mice; experiment: Effect on uterus and ovary histo-morphological features / normal endocrinological functions; type: in vivo
Method: The skin containing the mammary fat pads was fixed in 10% neutral buffered formalin for at least 24 h. The mammary glands were then dissected free from skin and processed for histological examinations (D. Medina, Preneoplastic lesions in mouse mammary tumorigenesis, Methods Cancer Res. 7 (1973) 3-53. 514). Routine section of mammary tissues, uterus and ovary were prepared after fixation by embedding in paraf.n, sectioning at 5 μM, and staining with H&E. To immunolocalize aromatase expression, 5 μM thick sections of aromatase and nontransgenic mammary gland tissue were used. After deparaffination and rehydration in xylene and ethanol, nonspecific sites were blocked by incubating with 1% normal goat serum in 0.05M Tris-HCl buffer. After decanting the reagents, the sections were covered with rabbit polyclonal antibody to rat aromatase synthetic peptide in 1:100 dilution (aromatase antibody was obtained from Dr. Evan Simpson, University of Texas Southwestern Medical Center, Dallas, Tex.; currently at Prince Henry's Institute, Clayton, Vic., Australia). The samples were incubated overnight at 4° C. in a humidied chamber. After three washings with 0.05M Tris-HCl buffer, the slides were incubated with alkaline phosphate conjugated secondary antibody for 30 min at room temperature and washings were repeated and sections were incubated with 1% fast red/naphthol AS phospate solution for 5 min. Sections were washed again and cover slipped and staining pattern was observed using light microscope.
Aged (about 16-20 weeks old) virgin aromatase transgenic females were used to investigate the effect of the aromatase inhibitor, COMPOUND I, as a chemopreventive agent against the preneoplastic and neoplastic changes induced in mammary glands of these mice. In this study, age-matched transgenic females were divided into four groups, one group (n=10) served as control group, the other groups received daily s.c. injection of COMPOUND I and three different doses; 0.25, 05, 1.0 μg COMPOUND I per animal in 100 μl of 0.3% hydroxy propyl cellulose (in phospate buffered saline). […]

estradiol = experiment: Serum estradiol levels (double antibody radioimmunoassay); type: in vivo, mice; settings: for circulating estrogen (estradiol) level: control 12.5 pg/ml, no significant difference
Method: as §1
Blood from both control and COMPOUND I-treated groups was collected by cardiac puncture directly before harvesting tissues. Serum concentrations of estradiol were measured by double antibody radioimmunoassay using commercially available reagents (Diagnostic Products Corp., Los Angeles, Calif.). […] Assaying increasing volumes of serum from 50 to 200 μl produced a displacement line parallel to the standard curve. Intra-assay and inter assay coefficients of variation averaged <10.0 and 6.7%, respectively. FSH levels were measured using a standard double antibody radioimmunoassay. Purified FSH obtained from NIH hormone resource was used as a standard. Differences in mean estradiol or FSH levels were compared, and significance was determined using paired Student's t-test.

[3] = system: estrogen receptor (ER), progesterone receptor (PR), cyclin D1 and proliferating cell nuclear antigen (PCNA); experiment: Western blot of ER, PR, cyclin D1 and PCNA protein levels in mammary tissues; type: in vivo, mice; settings: 5 μg
Method: as §1, §2

[4] = system: follicle stimulating hormone; experiment: Serum FSH levels (double antibody radioimmunoassay); type: in vivo, mice
Excerpt: as §1, with “[…]; […]” for “other groups received daily s.c. injection of COMPOUND I and three different doses; 0.25, 05, 1.0 μg COMPOUND I per animal in 100 μl of 0.3% hydroxy”
Blood from both control and COMPOUND I-treated groups was collected by cardiac puncture directly before harvesting tissues. Serum concentrations of estradiol were measured by double antibody radioimmunoassay using commercially available reagents (Diagnostic Products Corp., Los Angeles, Calif.). […] FSH levels were measured using a standard double antibody radioimmunoassay. […] Differences in mean estradiol or FSH levels were compared, and significance was determined using paired Student's t-test.

For `N#Cc1ccc(C(c2ccc(C#N)cc2)n2cncn2)cc1` [COMPOUND I], the “decrease in expression of the uterine marker lactoferrin vs control” value (lactoferrin, ER, and PR) is given as 1.8 fold, the “effect on normal endocrinological functions” value [1] is given as “affected some normal endocrinological functions” and the “effect on histo-morphological features of the uterus and ovary” value (“effect on histo-morphological features” for short) ([2]; 0.25 μg per day per animal) is given as “no effect”. For the same compound, the “effect on histo-morphological features” value ([2]; 0.5 μg per day per animal) was “no effect”, the “effect on histo-morphological features” value ([2]; 1 μg per day per animal) was “no effect” and the “circulating estrogen (estradiol) level” value (estradiol; 0.25 μg per day per animal) was 12.1 pg/mL. The “circulating estrogen (estradiol) level” value (estradiol; 0.5 μg per day per animal) was 12.5 pg/mL, the “circulating levels of estradiol” value (estradiol; dose of 0.5 μg per day per animal as printed in last sentence of b103) was 2 pg/mL and the “level of PCNA, reduction” value [3] was 50%. The “circulating FSH level” value ([4]; 0.5 μg, no significant difference to control) was 200 ng/mL and the “circulating FSH level” value ([4]; 5.0 μg, difference to control very significant (paired Student's t-test)) was 480 ng/mL.

From patent US20090036507A1, “BIS (CYANOPHENYL) METHYL-TRIAZOLE FOR USE IN PREVENTION OF BREAST CANCER” (priority 2001, published 2009)
